Results published in patent publication US4594356A, “Method for inducing mydriasis in animals” (Key Pharmaceuticals, Inc., priority 1985, dated 1986).
Like-named read-outs stand apart in the source and are kept apart here.

How the values were obtained:
intraocular pressure [1] = details: cited from earlier work
eye [2] = details: in vivo; cited from earlier work
eye [3] = details: cited from earlier work; for ocular sympathomimetic activity: in vivo; for potency relative to dipivalyl epinephrine: on a molar basis
[4] = Enzymatic hydrolysis in aqueous humor at 37° C.; assay type: in vitro ADME, New Zealand albino rabbits
Description: (§1) The stability of the ethyl succinyl derivative in isotonic saline buffer was determined in order to contrast the rates of hydrolysis of a chemical system with those of the ocular enzymatic systems. Ocular tissues were obtained from New Zealand albino rabbits. Homogenates were prepared in isotonic saline with a potassium phosphate buffer pH 7.4. High pressure liquid chromatography systems with spectrophotometric (254 nm) and electrochemical detection were used for determination.

pupil [5] = test: Mydriatic study: pupil diameter difference between drug-treated and saline-treated eye in normal albino rabbits; assay type: in vivo, New Zealand male albino rabbits; details: drug eye vs saline eye difference
Description: Normal New Zealand male albino rabbits weighing from 2 to 3 kg. were used in the studies. The animals were placed in fiberglass restraining cages at least a half hour before the experiment and remained there throughout the test. The cages were located in a light and temperature controlled room. Pupil diameter was measured with a monostat vernier caliper held at a constant distance from observer and animal eyes. Drug solutions were formulated by dissolving the test agent in 0.9% saline solutions.
In the test procedure, a standard dose volume of 0.05 ml of the drug solution was applied to one eye and 0.9% saline was applied to the other eye of the same animal. The differences in the same animals between pupil diameter in millimeters of the eye with drug applied against the other eye with only saline instilled were recorded.
The pupillary dose response results are shown below in Table I.

[6] = Stability in isotonic saline buffer pH 7.4 at 37° C.; assay type: physicochemical; details: Isotonic saline pH 7.4, 37° C.
Description: as §1

[7] = Enzymatic hydrolysis in corneal tissue homogenate at 37° C.; assay type: in vitro ADME, New Zealand albino rabbits; details: Corneal tissue 10% homogenate, pH 7.4, 37° C.
Description: as §1

[8] = Enzymatic hydrolysis in iris/ciliary body homogenate at 37° C.; assay type: in vitro ADME, New Zealand albino rabbits; details: Iris/ciliary body 10% homogenate, pH 7.4, 37° C.
Description: as §1

[9] = Enzymatic hydrolysis in human plasma at 37° C.; assay type: in vitro ADME
[10] = Ocular distribution after topical administration of the diester; assay type: in vivo; details: after topical administration of compound of Formula I (formed by hydrolysis / reduction-hydrolysis)
Text: Thus, topical adminstration of a compound of Formula I to the eye of an animal effectively induces pupil diameter enlargement and lowers intraocular pressure for a limited duration as a novel type of site-specific delivery system for epinephrine without the concomitant appearance of any significant undesirable side-effects associated with the prior art.

eye [11] = details: topical, prolonged usage; cited from earlier work
[12] = Half-life of adrenalone diesters (R methyl, R1 = R2); assay type: in vitro ADME; details: R is methyl, medium not stated, read-out: half-life (t1/2)
Text: Further, it should be noted that R is preferrably methyl.

eye [13] = details: cited from earlier work
intraocular pressure [14] = details: cited from earlier work; for ocular tension (intraocular pressure) reduction: clinical study
pupil [15] = details: 2% solution; cited from earlier work
glaucoma = details: cited from earlier work

CC(C)NCC(O)c1ccc(O)c(O)c1 (stereo not drawn) [Isoproterenol]
intraocular pressure reduction (intraocular pressure [1]; in vivo): satisfactorily reduced intraocular pressure | mydriasis (intraocular pressure [1]; in vivo): causing mydriasis | serious side-effects (intraocular pressure [1]; treatment of glaucoma): taachycardia, weakness, and palpatations were observed

CNCC(=O)c1ccc(OC(=O)C(C)(C)C)c(OC(=O)C(C)(C)C)c1 [dipivalyl]
recovery of normal vision (eye [2]): did not achieve faster recovery of normal vision | ocular sympathomimetic activity (eye [3]): High ocular sympathomimetic activity | potency relative to dipivalyl epinephrine (eye [3]): more potent on a molar basis than the successful prodrug of epinephrine, dipivalyl epinephrine

CCOC(=O)CCC(=O)Oc1ccc(C(=O)CNC)cc1OC(=O)CCC(=O)OCC [0,0-di(ethylsuccinyl) adrenalone hydroperchlorate]
k (hydrolysis rate constant) [4]: 5.09 min^-1 × 10^-1 | half-life ([4]; rabbit): 1.36 min | Pupil diameter (X ± S.E.) (pupil [5]; 1.0×10^-2 M, 10 minutes): 0.34 mm | Pupil diameter (X ± S.E.) (pupil [5]; 1.0×10^-2 M, 20 minutes): 0.43 mm | Pupil diameter (X ± S.E.) (pupil [5]; 1.0×10^-2 M, 30 minutes): 1.27 mm | Pupil diameter (X ± S.E.) (pupil [5]; 1.0×10^-2 M, 60 minutes): 1.42 mm | Pupil diameter (X ± S.E.) (pupil [5]; 1.0×10^-2 M, 120 minutes): 0.18 mm | Pupil diameter (X ± S.E.) (pupil [5]; 1.0×10^-2 M, 180 minutes): 0.37 mm | Pupil diameter (X ± S.E.) (pupil [5]; 1.5×10^-2 M, 10 minutes): 0.33 mm | Pupil diameter (X ± S.E.) (pupil [5]; 1.5×10^-2 M, 20 minutes): 0.80 mm | Pupil diameter (X ± S.E.) (pupil [5]; 1.5×10^-2 M, 30 minutes): 1.10 mm | Pupil diameter (X ± S.E.) (pupil [5]; 1.5×10^-2 M, 60 minutes): 2.13 mm | Pupil diameter (X ± S.E.) (pupil [5]; 1.5×10^-2 M, 120 minutes): 0.34 mm | Pupil diameter (X ± S.E.) (pupil [5]; 1.5×10^-2 M, 180 minutes): 0.16 mm | Pupil diameter (X ± S.E.) (pupil [5]; 2.0×10^-2 M, 10 minutes): 0.69 mm | Pupil diameter (X ± S.E.) (pupil [5]; 2.0×10^-2 M, 20 minutes): 1.12 mm | Pupil diameter (X ± S.E.) (pupil [5]; 2.0×10^-2 M, 30 minutes): 1.64 mm | Pupil diameter (X ± S.E.) (pupil [5]; 2.0×10^-2 M, 60 minutes): 3.11 mm | Pupil diameter (X ± S.E.) (pupil [5]; 2.0×10^-2 M, 120 minutes): 0.79 mm | Pupil diameter (X ± S.E.) (pupil [5]; 2.0×10^-2 M, 180 minutes): 0.31 mm | Pupil diameter (X ± S.E.) (pupil [5]; 2.4×10^-3 M, 10 minutes): 0.15 mm | Pupil diameter (X ± S.E.) (pupil [5]; 2.4×10^-3 M, 20 minutes): 0.18 mm | Pupil diameter (X ± S.E.) (pupil [5]; 2.4×10^-3 M, 30 minutes): 0.20 mm | Pupil diameter (X ± S.E.) (pupil [5]; 2.4×10^-3 M, 60 minutes): 0.30 mm | Pupil diameter (X ± S.E.) (pupil [5]; 2.4×10^-3 M, 120 minutes): 0.08 mm | Pupil diameter (X ± S.E.) (pupil [5]; 2.4×10^-3 M, 180 minutes): 0.11 mm | Pupil diameter (X ± S.E.) (pupil [5]; 2.5×10^-2 M, 10 minutes): 0.44 mm | Pupil diameter (X ± S.E.) (pupil [5]; 2.5×10^-2 M, 20 minutes): 1.99 mm | Pupil diameter (X ± S.E.) (pupil [5]; 2.5×10^-2 M, 30 minutes): 2.90 mm | Pupil diameter (X ± S.E.) (pupil [5]; 2.5×10^-2 M, 60 minutes): 3.29 mm | Pupil diameter (X ± S.E.) (pupil [5]; 2.5×10^-2 M, 120 minutes): 1.66 mm | Pupil diameter (X ± S.E.) (pupil [5]; 2.5×10^-2 M, 180 minutes): 0.22 mm | Pupil diameter (X ± S.E.) (pupil [5]; 5.0×10^-3 M, 10 minutes): 0.20 mm | Pupil diameter (X ± S.E.) (pupil [5]; 5.0×10^-3 M, 20 minutes): 0.56 mm | Pupil diameter (X ± S.E.) (pupil [5]; 5.0×10^-3 M, 30 minutes): 0.82 mm | Pupil diameter (X ± S.E.) (pupil [5]; 5.0×10^-3 M, 60 minutes): 0.78 mm | Pupil diameter (X ± S.E.) (pupil [5]; 5.0×10^-3 M, 120 minutes): 0.46 mm | Pupil diameter (X ± S.E.) (pupil [5]; 5.0×10^-3 M, 180 minutes): 0.58 mm | k (hydrolysis rate constant) [6]: 0.04 min^-1 × 10^-1 | half-life ([6]; isotonic saline buffer): 173 min | k (hydrolysis rate constant) [7]: 3.08 min^-1 × 10^-1 | half-life ([7]; rabbit): 2.25 min | k (hydrolysis rate constant) [8]: 7.91 min^-1 × 10^-1 | half-life ([8]; rabbit): 0.88 min | half-life [9]: 1.01 min | k (hydrolysis rate constant) [9]: 6.68 min^-1 × 10^-1

CNC[C@H](O)c1ccc(O)c(O)c1 [epinephrine]
ocular distribution [10]: found only in the uveal (iris-ciliary body) tissues | mydriasis (side effect) (eye [11]): frequently causes mydriasis | retinal maculopathy (side effect) (eye [11]): sometimes retinal maculopathy

CCOC(=O)CCC(=O)Oc1ccc(C(=O)CNC)cc1OC(=O)CCC(=O)OCC [R1 = R2 (1)]
half-life [12]: 1.01 min

CNCC(=O)c1ccc(O)c(O)c1 [adrenalone]
mydriasis (eye [13]; high concentrations): will not produce mydriasis | reduction in the eye to adrenalin (eye [13]; topical administration): not reduced in the eye to the active adrenalin | ocular distribution [10]: found in every compartment of the eye | intraocular pressure reduction (intraocular pressure [14]; 2% solution, patients suffering from glaucoma): did not cause any reduction in the intraocular pressure | ocular tension (intraocular pressure) reduction (intraocular pressure [14]): do not | mydriatic activity (pupil [15]): only a minimal level of mydriatic activity

CCN(CC)C(=O)CCC(=O)Oc1ccc(C(=O)CNC)cc1OC(=O)CCC(=O)N(CC)CC [R1 = R2 (4)]
half-life [12]: 8.55 min

CNCC(=O)c1ccc(OC(=O)CC(C)C)c(OC(=O)CC(C)C)c1 [R1 = R2 (6)]
half-life [12]: 19.2 min

CNCC(=O)c1ccc(OC(=O)CC(C)C)c(OC(=O)CC(C)C)c1 [diisovaleryl]
ocular sympathomimetic activity (eye [3]): High ocular sympathomimetic activity | potency relative to dipivalyl epinephrine (eye [3]): more potent on a molar basis than the successful prodrug of epinephrine, dipivalyl epinephrine

CCCC(=O)Oc1ccc(C(=O)CNC)cc1OC(=O)CCC [R1 = R2 (2)]
half-life [12]: 2.13 min

CC(C)NCC(=O)c1ccc(O)c(O)c1 [3,4-dihydroxy-2-(isopropylamino) acetophenone]
mydriatic activity (side-effect) (glaucoma; in vivo): toxic, harmful or deleterious side-effect | treatment of glaucoma (glaucoma; in vivo): successful treatment of glaucoma | concentration needed to achieve the desired result (glaucoma; treatment of glaucoma): 3%

CNC[C@@H](O)c1ccc(O)c(O)c1 [d-adrenalin]
ocular tension (intraocular pressure) reduction (intraocular pressure [14]): do not

CCCCCC(=O)Oc1ccc(C(=O)CNC)cc1OC(=O)CCCCC [R1 = R2 (3)]
half-life [12]: 2.96 min

CNC[C@H](O)c1ccc(O)c(O)c1 [1-adrenaline]
ocular tension (intraocular pressure) reduction (intraocular pressure [14]): lowered ocular tension

CNCC(=O)c1ccc(OC(=O)C(C)(C)C)c(OC(=O)C(C)(C)C)c1 [R1 = R2 (7)]
half-life [12]: 57.8 min

CNCC(=O)c1ccc(OC(=O)C=Cc2ccccc2)c(OC(=O)C=Cc2ccccc2)c1 [R1 = R2 (5)]
half-life [12]: 10.1 min
